In patent US9597361B2, “Treating a bacterial skin infection with a whole, leech saliva extract” (priority 2012, dated 2017):

Tests used:
[1] = test system: Staphylococcus aureus ATCC25923; assay: Kirby-Bauer disc diffusion; details: ATCC25923, read-out: Zone of inhibition, S. aureus
[2] = test system: Escherichia coli ATCC35218; assay: Kirby-Bauer disc diffusion; details: ATCC35218, read-out: Zone of inhibition, E. coli
[3] = test system: Salmonella typhi; assay: Kirby-Bauer disc diffusion; format: cell-based; details: Salmonella enterica, read-out: Zone of inhibition, Sal. typhi
[4] = test system: Bacillus cereus ATCC25923; assay: Kirby-Bauer disc diffusion; details: ATCC25923, read-out: Zone of inhibition, B. cereus
[5] = test system: Pseudomonas aeruginosa ATCC27853; assay: Kirby-Bauer disc diffusion; details: ATCC27853, read-out: Zone of inhibition, P. auroginosa
[6] = test system: alloxan-induced diabetic rats; assay: Antihyperglycemic activity: fasting blood glucose in alloxan-induced diabetic rats
Procedure: Male rats of Sprague Dawley strain (SD) (from Mikro Makmur Enterprise, Kuantan, Pahang Darul Makmur, Malaysia) were grouped randomly and kept at an animal post-graduate laboratory in Kulliyyah of Pharmacy, International Islamic University Malaysia (IIUM), maintained with an air conditioning system and exhaust fans. The rats were under a 12 h/12 h dark and light cycle at room temperature (25° C.). They were acclimatized to these conditions for one week prior to the experiment and housed in polypropylene cages lined with pine wood husk changed every two days. The rats were given free access to tap water and a commercial dry pellet diet, Gold Coin. The experimental procedures were conducted according to Principles and Guide to Ethical Use of Laboratory Animals approved by Ministry of Health Malaysia (Sinniah & Hussein, 2000). […]
After 24 hours of alloxanisation, the fasting blood glucose concentration (FBG) was measured every morning to check the diabetic state of the injected rats. […]
Fasting blood glucose (FBG) at two-hour intervals was recorded during the experiment period for all the experimental animals. The percentage decrease in fasting blood glucose concentration was calculated from the following equation (Madubunyi, Onoja, & Asuzu, 2010):

Row | Molecule | zone of inhibition at 5 µg/disc [1] | zone of inhibition at 5 µg/disc [2] | zone of inhibition at 5 µg/disc [3] | zone of inhibition at 5 µg/disc [4] | zone of inhibition at 5 µg/disc [5] | fasting blood glucose (FBG) ([6]; after two hours of injection (LSE p<0.05; insulin p<0.001)) | fasting blood glucose (FBG) ([6]; insulin 10 units/kg b.w s.c., after 8 hours of treatment)
1 | O=C(O)c1cn(C2CC2)c2cc(N3CCNCC3)c(F)cc2c1=O [Cipro, ciprofloxacin] | 24 mm | 26 mm | 35 mm | 28 mm | 24 mm |  | 
2 | insulin: insulin from bovine pancreas (≧27 units/mg), suspension in distilled water |  |  |  |  |  | sharp significant decrease | returned to the diabetic state
